According to patent US8574590B2 (Integral Molecular, Inc., priority 2003, dated 2013):
Like-named read-outs stand apart in the source and are kept apart here.

Experiments:
[1] = depending on the ionic composition of the membrane; cited from earlier work
[2] = read-out: Kd for Ca^++; cited from earlier work
[3] = system: Gag/luciferase-lipoparticles; assay: Melittin poration of Gag/luciferase-lipoparticles (luciferase luminescence); type: biochemical; details: melittin 0.3 to 105 uM, 30 minutes
Procedure: FIG. 24. […] Lipoparticles were constructed to contain a luciferase enzyme inside the lipoparticle. […] To insure the integrity of the luciferase, after each addition of melittin, the same sample was lysed with Triton X-100 (circles) and again measured.
Lipoparticles containing a Gag-luciferase fusion protein were prepared as described herein. Melittin, ranging from 0.3 to 105 uM in final concentration, was added to solutions of Gag/luciferase-lipoparticles (MOPS pH 6.5 buffer), mixed, and incubated for 30 minutes. A 5 μl aliquot of the Lipoparticle solution was then transferred to a 96-well plate containing 50 μl of Luciferase assay reagent (Promega Steady Glo Luciferase Assay System) which contains the necessary reagents for enzymatic activity, including luciferin, ATP, and Mg^2+. Luminescence was measured for 1 second integrations in a Wallac Victor2V. […] Triton X-100 was used to lyse luciferase-lipoparticles as a positive control.

Kv1.3 = Kv1.3 (Homo sapiens, UniProt P22001); details: cited from earlier work
Shaker = Shaker (Drosophila melanogaster, UniProt P08510); details: cited from earlier work
K-channels = details: cited from earlier work
Ca-activated K-channels = details: cited from earlier work

Chain of Kv1.3 (P22001 whole entry): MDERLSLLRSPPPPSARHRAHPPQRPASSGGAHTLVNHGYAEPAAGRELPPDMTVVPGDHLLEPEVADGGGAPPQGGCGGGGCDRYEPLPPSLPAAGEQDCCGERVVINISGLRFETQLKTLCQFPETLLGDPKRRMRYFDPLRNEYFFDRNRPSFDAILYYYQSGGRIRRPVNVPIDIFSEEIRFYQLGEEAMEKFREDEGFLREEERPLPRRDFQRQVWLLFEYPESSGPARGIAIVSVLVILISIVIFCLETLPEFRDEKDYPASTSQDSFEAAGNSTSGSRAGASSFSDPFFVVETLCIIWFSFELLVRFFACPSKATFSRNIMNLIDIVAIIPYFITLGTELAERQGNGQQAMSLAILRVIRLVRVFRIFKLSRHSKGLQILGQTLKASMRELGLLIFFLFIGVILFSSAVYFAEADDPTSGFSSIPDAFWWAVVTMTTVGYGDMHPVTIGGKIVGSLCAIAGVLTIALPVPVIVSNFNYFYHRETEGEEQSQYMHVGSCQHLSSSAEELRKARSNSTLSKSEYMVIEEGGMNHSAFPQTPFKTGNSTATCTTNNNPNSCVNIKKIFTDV
Chain of Shaker (P08510 whole entry): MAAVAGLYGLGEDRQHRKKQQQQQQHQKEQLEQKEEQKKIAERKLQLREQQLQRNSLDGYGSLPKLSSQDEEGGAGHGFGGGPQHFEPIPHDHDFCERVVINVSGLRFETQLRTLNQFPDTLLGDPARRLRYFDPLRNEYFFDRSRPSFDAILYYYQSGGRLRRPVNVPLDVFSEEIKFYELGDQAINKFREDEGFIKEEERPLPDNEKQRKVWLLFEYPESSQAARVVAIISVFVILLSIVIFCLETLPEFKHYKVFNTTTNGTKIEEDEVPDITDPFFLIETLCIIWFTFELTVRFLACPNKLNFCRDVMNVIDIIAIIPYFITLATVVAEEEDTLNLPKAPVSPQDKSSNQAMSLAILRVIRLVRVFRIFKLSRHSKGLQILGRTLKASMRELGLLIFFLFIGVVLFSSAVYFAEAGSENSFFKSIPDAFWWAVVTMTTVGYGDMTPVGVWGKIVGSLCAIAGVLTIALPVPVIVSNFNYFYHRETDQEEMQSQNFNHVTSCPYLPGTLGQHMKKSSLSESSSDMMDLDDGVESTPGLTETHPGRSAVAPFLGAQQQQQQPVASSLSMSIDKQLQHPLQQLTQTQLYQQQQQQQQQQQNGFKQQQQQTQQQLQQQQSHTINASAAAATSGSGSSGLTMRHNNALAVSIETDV

Compound: CCCCCCCCCCCCCCCCCc1cc(=O)oc2cc(O)ccc12 [4-heptadecyl-7-hydroxycoumarin]
- pKa range [1]: 6.35-11.15

Compound: Cc1ccc(N(CC(=O)O)CC(=O)O)c(OCCOc2cc3cc(-c4ncc(C(=O)O)o4)oc3cc2N(CC(=O)O)CC(=O)O)c1 [Fura-2]
- Kd [2]: 140 nM

Compound: CC[C@H](C)[C@H](NC(=O)CN)C(=O)NCC(=O)N[C@@H](C)C(=O)N[C@H](C(=O)N[C@@H](CC(C)C)C(=O)N[C@@H](CCCCN)C(=O)N[C@H](C(=O)N[C@@H](CC(C)C)C(=O)N[C@H](C(=O)N[C@H](C(=O)NCC(=O)N[C@@H](CC(C)C)C(=O)N1CCC[C@H]1C(=O)N[C@@H](C)C(=O)N[C@@H](CC(C)C)C(=O)N[C@H](C(=O)N[C@@H](CO)C(=O)N[C@@H](Cc1c[nH]c2ccccc12)C(=O)N[C@H](C(=O)N[C@@H](CCCCN)C(=O)N[C@@H](CCCNC(=N)N)C(=O)N[C@@H](CCCCN)C(=O)N[C@@H](CCCNC(=N)N)C(=O)N[C@@H](CCC(N)=O)C(=O)N[C@@H](CCC(N)=O)C(N)=O)[C@@H](C)CC)[C@@H](C)CC)[C@@H](C)O)[C@@H](C)O)C(C)C)C(C)C [Melittin]
- permeabilization of lipoparticles (luciferase signal) [3]: increase of the luminescent signal
- permeabilization of lipoparticles (luciferase signal) ([3]; listed as melittin): the lipoparticles were permeabilized

Compound: Agitoxin-2: toxin, inhibitor of K-channels
- Blocking of Kv1.3 (Kv1.3): Blocks Kv1.3 and Shaker
- Blocking of Shaker (Shaker): Blocks Kv1.3 and Shaker

Compound: Alpha-Dendrotoxin
- Blocking of Kv1.3 (Kv1.3): Blocks Kv1.3 and Shaker
- Blocking of Shaker (Shaker): Blocks Kv1.3 and Shaker
- binding under high ionic strength conditions (K-channels; high ionic strength): Binds very weakly under high ionic strength
- binding under low ionic strength conditions (K-channels; low ionic strength): Binds strongly under low ionic strength conditions

Compound: Charybdotoxin
- Blocking of Kv1.3 (Kv1.3): Blocks Kv1.3 and Shaker
- Blocking of Kv1.3 (Kv1.3; listed as CHTX): highly specific, potent, and impermeant blocker
- Blocking of Shaker (Shaker): Blocks Kv1.3 and Shaker
- Blocking of Shaker (Shaker; listed as CHTX): highly specific, potent, and impermeant blocker
- effect of Ca on binding (K-channels): Ca inhibits binding
- binding at low ionic strength, high pH (8.5) (K-channels; low ionic strength, high pH (8.5)): Low ionic strength, high pH (8.5) enhances binding

Compound: Iberiotoxin: toxin, inhibitor of K-channels (QFTDVDCSVSKECWSVCKDLFGVDRGKCMGKKCRCYQ; UniProt P24663 1-37, looked up)
- Blocking of Kv1.3 (Kv1.3): not Kv1.3
- Blocking of Shaker (Shaker): not
- Blocking of Ca-activated K-channels (Ca-activated K-channels): Blocks

Compound: Margatoxin
- Blocking of Kv1.3 (Kv1.3): Blocks
- Blocking of Shaker (Shaker): not Shaker
